Measured values taken from US12624024B2, “EP2 antagonist compounds” (Reservoir Neuroscience, Inc., priority 2021, dated 2026).

Biological target: T1, EP2 receptor (Homo sapiens, UniProt P43116)
T1 construct: expressed in transfected cells; host or cells: CHO-K1 cells (ATCC), transient transfection with FuGENE 6
Assay: EP2 Potency Assay (cAMP TR-FRET, CHO-K1 cells transfected with EP2 receptor, PGE2 at EC80)
Format: cell-based
Details: CHO-K1 cells expressing EP2, prostaglandin E2 at EC80, read-out: EP2 Potency (IC50 category)
Experimental: Compound potency was measured using a cAMP TR-FRET assay.
After 6 hours incubation, the cell media was replaced with F12 medium supplemented with 10% FBS and 100 U/ml Pen-Strep. 24 hours after transfection, cells were harvested and seeded at a density of 3000 cells/well in a 384 well plate to perform the cAMP assay, using the LANCE Ultra cAMP assay kit (PerkinElmer).
Plates were then centrifuged at 1000 rpm for 1 min, agitated at 600 rpm at R.T. for 2 min, and incubated at 25° C. for 5 min. The reference agonist, prostaglandin E2 (MCE), was added to each well at the appropriate concentration to reach its EC80 value. Plates were then centrifuged at 1000 rpm for 1 min, agitated at 600 rpm at R.T. for 2 min, and incubated at 25° C. for 30 min.
A dose-response curve was prepared by plotting percent inhibition for each compound concentration, and then IC50 was calculated by fitting a curve to the plotted values and extrapolating the IC50 concentration.

T1 sequence (P43116 whole entry): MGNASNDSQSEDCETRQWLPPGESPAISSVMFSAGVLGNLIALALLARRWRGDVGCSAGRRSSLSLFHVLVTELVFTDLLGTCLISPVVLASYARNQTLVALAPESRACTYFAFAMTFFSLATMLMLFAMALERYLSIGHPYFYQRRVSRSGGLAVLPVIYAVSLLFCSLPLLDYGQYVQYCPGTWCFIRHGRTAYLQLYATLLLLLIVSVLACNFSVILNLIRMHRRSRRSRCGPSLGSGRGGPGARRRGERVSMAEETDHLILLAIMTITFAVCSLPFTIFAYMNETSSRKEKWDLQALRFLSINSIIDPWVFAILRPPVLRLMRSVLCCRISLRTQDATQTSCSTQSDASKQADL

Structure (SMILES) | IC50
COC(=O)[C@H]1CC[C@@H](CN2CCOc3c(Cl)cc(-n4ccc5cc(F)ccc54)cc3C2)CC1 [Compound 134] | > 5000 nM
NC(=O)c1ncc(CN2CCOc3c(Cl)cc(-n4ccc5cc(F)ccc54)cc3C2)cn1 [Compound 143, 5-{[9-chloro-7-(5-fluoroindol-1-yl)-3,5-dihydro-2H-1,4-benzoxazepin-4-yl]methyl}pyrimidine-2-carboxamide] | 1000 to 5000 nM
O=c1ncc(CN2CCOc3c(Cl)cc(-n4ccc5cc(F)ccc54)cc3C2)c(F)[nH]1 [Compound 155, 5-{[9-chloro-7-(5-fluoroindol-1-yl)-3,5-dihydro-2H-1,4-benzoxazepin-4-yl]methyl}-4-fluoro-3H-pyrimidin-2-one] | 1000 to 5000 nM
O=c1ncc(CN2CCOc3c(Cl)cc(-n4ccc5cc(F)ccc54)cc3C2)c(O)[nH]1 [Compound 157, 5-{[9-chloro-7-(5-fluoroindol-1-yl)-3,5-dihydro-2H-1,4-benzoxazepin-4-yl]methyl}-4-hydroxy-3H-pyrimidin-2-one] | 1000 to 5000 nM
Oc1ncc(CN2CCOc3c(Cl)cc(-n4ccc5cc(F)ccc54)cc3C2)c(Cl)n1 [Compound 158, 4-chloro-5-{[9-chloro-7-(5-fluoroindol-1-yl)-3,5-dihydro-2H-1,4-benzoxazepin-4-yl]methyl}-3H-pyrimidin-2-one] | 1000 to 5000 nM
Fc1ccc2c(ccn2-c2cc(Cl)c3c(c2)CN(Cc2ccnc(NC4COC4)n2)CCO3)c1 [Compound 162, 4-{[9-chloro-7-(5-fluoroindol-1-yl)-3,5-dihydro-2H-1,4-benzoxazepin-4-yl]methyl}-N-(oxetan-3-yl)pyrimidin-2-amine] | 1000 to 5000 nM
Nc1nccc(CN2CCOc3c(Cl)cc(-n4ccc5cc(F)ccc54)cc3C2)n1 [Compound 163, 4-{[9-chloro-7-(5-fluoroindol-1-yl)-3,5-dihydro-2H-1,4-benzoxazepin-4-yl]methyl}pyrimidin-2-amine] | 1000 to 5000 nM
O=c1nccc(CN2CCOc3c(Cl)cc(-n4ccc5cc(F)ccc54)cc3C2)[nH]1 [Compound 164] | > 5000 nM
Nc1ccc(CN2CCOc3c(Cl)cc(-n4ccc5cc(F)ccc54)cc3C2)nn1 [Compound 167] | 1000 to 5000 nM
CC(C)(C)OC(=O)Nc1ccc(CN2CCOc3c(Cl)cc(-n4ccc5cc(F)ccc54)cc3C2)nn1 [Compound 168] | > 5000 nM
CC(C)(C)OC(=O)Nc1cnc(CN2CCOc3c(Cl)cc(-n4ccc5cc(F)ccc54)cc3C2)cn1 [Compound 171] | > 5000 nM
COc1cnc(CN2CCOc3c(Cl)cc(-n4ccc5cc(F)ccc54)cc3C2)cn1 [Compound 172] | 1000 to 5000 nM
Fc1ccc2c(ccn2-c2cc(Cl)c3c(c2)CN(Cc2cnc(Cl)cn2)CCO3)c1 [Compound 173] | 1000 to 5000 nM
O=c1cc[nH]cc1CN1CCOc2c(Cl)cc(-n3ccc4cc(F)ccc43)cc2C1 [Compound 176] | 1000 to 5000 nM
CC(C)(C)OC(=O)Nc1cc(CN2CCOc3c(Cl)cc(-n4ccc5cc(F)ccc54)cc3C2)ccn1 [Compound 178] | > 5000 nM
Nc1cc(CN2CCOc3c(Cl)cc(-n4ccc5cc(F)ccc54)cc3C2)ccn1 [Compound 179, 4-{[9-chloro-7-(5-fluoroindol-1-yl)-3,5-dihydro-2H-1,4-benzoxazepin-4-yl]methyl}pyridin-2-amine] | 1000 to 5000 nM
CNc1cc(CN2CCOc3c(Cl)cc(-n4ccc5cc(F)ccc54)cc3C2)ccn1 [Compound 180, 4-{[9-chloro-7-(5-fluoroindol-1-yl)-3,5-dihydro-2H-1,4-benzoxazepin-4-yl]methyl}-N-methylpyridin-2-amine] | 1000 to 5000 nM
CN(C)c1cc(CN2CCOc3c(Cl)cc(-n4ccc5cc(F)ccc54)cc3C2)ccn1 [Compound 181, 4-{[9-chloro-7-(5-fluoroindol-1-yl)-3,5-dihydro-2H-1,4-benzoxazepin-4-yl]methyl}-N,N-dimethylpyridin-2-amine] | 1000 to 5000 nM
Fc1ccc2c(ccn2-c2cc(Cl)c3c(c2)CN(Cc2ccnc(NC4COC4)c2)CCO3)c1 [Compound 182, 4-{[9-chloro-7-(5-fluoroindol-1-yl)-3,5-dihydro-2H-1,4-benzoxazepin-4-yl]methyl}-N-(oxetan-3-yl)pyridin-2-amine] | 1000 to 5000 nM
NCc1cc(CN2CCOc3c(Cl)cc(-n4ccc5cc(F)ccc54)cc3C2)ccn1 [Compound 184, 1-(4-{[9-chloro-7-(5-fluoroindol-1-yl)-3,5-dihydro-2H-1,4-benzoxazepin-4-yl]methyl}pyridin-2-yl)methanamine] | 1000 to 5000 nM
Fc1ccc2c(ccn2-c2cc(Cl)c3c(c2)CN(Cc2ccnc(C4CNC4)c2)CCO3)c1 [Compound 188, 4-{[2-(azetidin-3-yl)pyridin-4-yl]methyl}-9-chloro-7-(5-fluoroindol-1-yl)-3,5-dihydro-2H-1,4-benzoxazepine; trifluoroacetic acid] | > 5000 nM
Fc1ccc2c(ccn2-c2cc(Cl)c3c(c2)CN(Cc2ccnc(Cl)c2F)CCO3)c1 [Compound 190] | 1000 to 5000 nM
Cc1c(CN2CCOc3c(Cl)cc(-n4ccc5cc(F)ccc54)cc3C2)ccnc1Cl [Compound 191] | 1000 to 5000 nM

Results, then the compound that gave them:

IC50 | Structure (SMILES)
100 to 500 nM | NCc1ncc(CN2CCOc3c(Cl)cc(-n4ccc5cc(F)ccc54)cc3C2)cn1 [Compound 139, 1-(5-{[9-chloro-7-(5-fluoroindol-1-yl)-3,5-dihydro-2H-1,4-benzoxazepin-4-yl]methyl}pyrimidin-2-yl)methanamine]
1000 to 5000 nM | CC(C)(C)OC(=O)NCc1ncc(CN2CCOc3c(Cl)cc(-n4ccc5cc(F)ccc54)cc3C2)cn1 [Compound 140, tert-butyl N-[(5-{[9-chloro-7-(5-fluoroindol-1-yl)-3,5-dihydro-2H-1,4-benzoxazepin-4-yl]methyl}pyrimidin-2-yl)methyl]carbamate]
500 to 1000 nM | OCc1ncc(CN2CCOc3c(Cl)cc(-n4ccc5cc(F)ccc54)cc3C2)cn1 [Compound 141, (5-{[9-chloro-7-(5-fluoroindol-1-yl)-3,5-dihydro-2H-1,4-benzoxazepin-4-yl]methyl}pyrimidin-2-yl)methanol]
< 100 nM | COC(=O)c1ncc(CN2CCOc3c(Cl)cc(-n4ccc5cc(F)ccc54)cc3C2)cn1 [Compound 145, Methyl 5-{[9-chloro-7-(5-fluoroindol-1-yl)-3,5-dihydro-2H-1,4-benzoxazepin-4-yl]methyl}pyrimidine-2-carboxylate]
100 to 500 nM | CNc1ncc(CN2CCOc3c(Cl)cc(-n4ccc5cc(F)ccc54)cc3C2)cn1 [Compound 147]
500 to 1000 nM | CN(C)c1ncc(CN2CCOc3c(Cl)cc(-n4ccc5cc(F)ccc54)cc3C2)cn1 [Compound 148]
100 to 500 nM | Fc1ccc2c(ccn2-c2cc(Cl)c3c(c2)CN(Cc2cnc(NC4COC4)nc2)CCO3)c1 [Compound 149, 5-{[9-chloro-7-(5-fluoroindol-1-yl)-3,5-dihydro-2H-1,4-benzoxazepin-4-yl]methyl}-N-(oxetan-3-yl)pyrimidin-2-amine]
500 to 1000 nM | COc1nccc(CN2CCOc3c(Cl)cc(-n4ccc5cc(F)ccc54)cc3C2)n1 [Compound 161]
500 to 1000 nM | Fc1ccc2c(ccn2-c2cc(Cl)c3c(c2)CN(Cc2cccnn2)CCO3)c1 [Compound 166]
100 to 500 nM | O=c1ccc(CN2CCOc3c(Cl)cc(-n4ccc5cc(F)ccc54)cc3C2)c[nH]1 [Compound 175]
100 to 500 nM | OCc1cc(CN2CCOc3c(Cl)cc(-n4ccc5cc(F)ccc54)cc3C2)ccn1 [Compound 183]
100 to 500 nM | COC(=O)c1cc(CN2CCOc3c(Cl)cc(-n4ccc5cc(F)ccc54)cc3C2)ccn1 [Compound 186]
